Columns and labels:
[1] = Methylglyoxal (MGO) trapping ability: fluorescence intensity of reaction product; assay type: biochemical; settings: compound 1.0 mM in MGO+PBS pH 7.4, 37° C., 1 day; ex 355 nm / em 460 nm; 10×10^3 or more = ability to trap MGO
Experimental: Methylglyoxal (MGO) is a main precursor of advanced glycation end products that cause complications due to diabetes mellitus. Successful trapping of methylglyoxal (MGO) can inhibit the production of advanced glycation end products. Therefore, the objective of this experimental example was to confirm whether the compound of the present invention has the ability to trap methylglyoxal (MGO), a precursor before the production of advanced glycation end products.
A mixture was prepared by adding methylglyoxal (MGO) to phosphate buffered saline (PBS, Cat no. 10010023, pH 7.4). The mixture (MGO+PBS) was treated with the compound of the above example at a concentration of 1.0 mM and then cultured at 37° C. for 1 day. The fluorescence intensity of the reaction product was measured at an excitation wavelength of 355 nm and an emission wavelength of 460 nm using a VICTOR™X3 multilabel plate reader.
The higher the fluorescence intensity measured from the reaction product, the higher the ability of the compound to trap methylglyoxal. In addition, in this experimental example, when the fluorescence intensity was 10×10^3 or more, it was determined that the compound had the ability to trap methylglyoxal.

[2] = Methylglyoxal (MGO) trapping ability: free MGO concentration by HPLC; assay type: biochemical; settings: for MGO concentration on day 1 (free MGO) / MGO concentration on day 7 (free MGO): compound 1:1 with MGO in PBS pH 7.4, 37° C.; for MGO concentration on day 1 (free MGO): day 1, HPLC; for MGO concentration on day 7 (free MGO): day 7, HPLC
Experimental: The objective of this experimental example was to confirm whether the compound of the present invention has the ability to trap methylglyoxal (MGO) by analyzing the concentration of free methylglyoxal (MGO) by high performance liquid chromatography (HPLC).
Specifically, a mixture was prepared by adding methylglyoxal (MGO) to phosphate buffered saline (PBS, Cat no. 10010023, pH 7.4). […]

## NCCCCNCCCNC(=O)OC[C@@H](N)Cc1c[nH]c2ccc(O)cc12 [Compound 10, (S)-2-amino-3-(5-hydroxy-1H-indol-3-yl)propyl (3-((4-aminobutyl)amino)propyl)carbamate]
[1]
  Fluorescence intensity on day 1 (×10^3): 223.01 ± 3.74 ×10^3
[2]
  MGO concentration on day 1 (free MGO): 444.11 µM
  MGO concentration on day 7 (free MGO): 269.28 µM
[2]; day 1 after incubation, control group PBS+MGO
  concentration of free methylglyoxal relative to the control group, day 1: about 12%
[2]; day 7 after incubation, control group PBS+MGO
  concentration of free methylglyoxal relative to the control group, day 7: about 38%

## CCCC(=O)N[C@H](CO)Cc1c[nH]c2ccc(OC(=O)CCC)cc12 [Compound 9, (S)-3-(2-butyramido-3-hydroxypropyl)-1H-indol-5-yl butyrate]
[1]
  Fluorescence intensity on day 1 (×10^3): 0.75 ± 0.30 ×10^3
[2]
  MGO concentration on day 1 (free MGO): 551.993 µM
  MGO concentration on day 7 (free MGO): 403.462 µM

## CCCC(=O)OC[C@@H](N)Cc1c[nH]c2ccc(OC(=O)CCC)cc12 [Compound 8, (S)-2-amino-3-(5-(butyryloxy)-1H-indol-3-yl)propyl butyrate]
[1]
  Fluorescence intensity on day 1 (×10^3): 21.74 ± 0.50 ×10^3
[2]
  MGO concentration on day 1 (free MGO): 501.09 µM
  MGO concentration on day 7 (free MGO): 412.65 µM
